Each structure is given as a SMILES string.

As a reminder, the IC50 is the concentration at which inhibition is half-maximal. A low value points to higher potency.

Type in all cases: organism-based
The target of assay [1] is T1, D(2) dopamine receptor (Rattus norvegicus, UniProt P61169). The assay can be described thus: In vivo inhibitory activity against dopamine (D2) receptor in rat caudate-putamen tissue.
Assay [2] concerns the target T2, D(1A) dopamine receptor (Rattus norvegicus, UniProt P18901). The assay can be described thus: In vivo inhibitory activity against dopamine (D1) receptor in rat caudate-putamen tissue.
Assay [3] deals with T1, D(2) dopamine receptor. The assay can be described thus: In vivo binding affinity against dopamine (D2) receptor in rat caudate-putamen tissue using [3H]nemonapride as radioligand.
Assay [4] has as its target T2, D(1A) dopamine receptor. The assay can be described thus: In vivo binding affinity against dopamine (D1) receptor in rat caudate-putamen tissue using [3H]SCH-23390 as radioligand.

T2 sequence (P18901 whole entry): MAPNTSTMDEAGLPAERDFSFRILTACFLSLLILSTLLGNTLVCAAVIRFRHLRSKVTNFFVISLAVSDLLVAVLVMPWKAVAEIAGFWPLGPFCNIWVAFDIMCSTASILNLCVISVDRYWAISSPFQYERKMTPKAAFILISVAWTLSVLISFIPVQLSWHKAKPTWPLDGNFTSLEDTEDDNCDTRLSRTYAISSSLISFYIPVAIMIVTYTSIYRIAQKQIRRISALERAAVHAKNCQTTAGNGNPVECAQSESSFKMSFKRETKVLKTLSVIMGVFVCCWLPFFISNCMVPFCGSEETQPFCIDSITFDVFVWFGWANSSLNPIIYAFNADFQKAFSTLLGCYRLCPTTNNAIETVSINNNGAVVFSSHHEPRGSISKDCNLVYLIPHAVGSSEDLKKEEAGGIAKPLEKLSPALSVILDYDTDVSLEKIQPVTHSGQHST
T1 sequence (P61169 whole entry): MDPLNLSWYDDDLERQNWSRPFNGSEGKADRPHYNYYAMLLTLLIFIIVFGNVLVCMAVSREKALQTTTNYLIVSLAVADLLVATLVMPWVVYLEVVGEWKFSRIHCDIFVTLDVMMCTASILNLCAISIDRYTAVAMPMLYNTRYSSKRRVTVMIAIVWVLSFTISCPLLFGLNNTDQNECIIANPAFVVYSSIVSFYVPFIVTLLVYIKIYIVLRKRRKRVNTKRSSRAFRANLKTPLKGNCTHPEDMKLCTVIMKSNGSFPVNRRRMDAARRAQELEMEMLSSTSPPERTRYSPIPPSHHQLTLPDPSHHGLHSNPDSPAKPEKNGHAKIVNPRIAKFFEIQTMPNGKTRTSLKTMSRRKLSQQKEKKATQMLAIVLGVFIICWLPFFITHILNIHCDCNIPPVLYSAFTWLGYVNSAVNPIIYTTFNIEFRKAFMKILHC

For the compound `CCN1CCC[C@H]1CNC(=O)c1c(O)ccc(I)c1OC`, the IC50 was 196 nM on D(2) dopamine receptor [1] and greater than 10000 nM against D(1A) dopamine receptor [2].

As to `CCN1CCC[C@H]1CNC(=O)c1c(OC)ccc(I)c1O` [IOLOPRIDE], the IC50 at D(2) dopamine receptor [3] was 1.2 nM; at D(1A) dopamine receptor [4] it was greater than 10000 nM; at D(2) dopamine receptor [1], 1.71 nM; against D(1A) dopamine receptor [2] it was greater than 10000 nM.

On to `CCN1CCC[C@H]1CNC(=O)c1c(O)c(Cl)cc(Cl)c1OC` [RACLOPRIDE], for which the half-maximal inhibitory concentration (IC50) on D(1A) dopamine receptor [2] was greater than 10000 nM.

These data come from ChEMBL document CHEMBL1144983, “Synthesis and affinity of a possible byproduct of electrophilic radiolabeling of [123I]IBZM” (Bioorg Med Chem Lett, 2003).
